Assays:
Format in all cases: cell-based
WEE1 = molecular target: T1, WEE1 (Homo sapiens, UniProt P30291+Q96SW2); assay: WEE1-ePL degradation assay (293T-LentiX, InCELL Hunter luminescence, 4 hr); settings: for DC50: LentiX-HEK293T cells expressing WEE1-ePL, 4 hr incubation, read-out: 293T-LentiX WEE1-ePL Degradation 4 hr EC50; for 293T-LentiX WEE1-ePL Degradation 4 hr YMin (%): lower limit of fit, % of DMSO control signal remaining
T1 construct: C-terminal ePL-tagged (DiscoverX, Fremont, CA) full-length WEE1 expression construct; expressed in transfected cells; host or cells: LentiX-HEK293T (Invitrogen), lentivirally transduced; the cells also over-express GSPT1-GN
T1 sequence (P30291 whole entry): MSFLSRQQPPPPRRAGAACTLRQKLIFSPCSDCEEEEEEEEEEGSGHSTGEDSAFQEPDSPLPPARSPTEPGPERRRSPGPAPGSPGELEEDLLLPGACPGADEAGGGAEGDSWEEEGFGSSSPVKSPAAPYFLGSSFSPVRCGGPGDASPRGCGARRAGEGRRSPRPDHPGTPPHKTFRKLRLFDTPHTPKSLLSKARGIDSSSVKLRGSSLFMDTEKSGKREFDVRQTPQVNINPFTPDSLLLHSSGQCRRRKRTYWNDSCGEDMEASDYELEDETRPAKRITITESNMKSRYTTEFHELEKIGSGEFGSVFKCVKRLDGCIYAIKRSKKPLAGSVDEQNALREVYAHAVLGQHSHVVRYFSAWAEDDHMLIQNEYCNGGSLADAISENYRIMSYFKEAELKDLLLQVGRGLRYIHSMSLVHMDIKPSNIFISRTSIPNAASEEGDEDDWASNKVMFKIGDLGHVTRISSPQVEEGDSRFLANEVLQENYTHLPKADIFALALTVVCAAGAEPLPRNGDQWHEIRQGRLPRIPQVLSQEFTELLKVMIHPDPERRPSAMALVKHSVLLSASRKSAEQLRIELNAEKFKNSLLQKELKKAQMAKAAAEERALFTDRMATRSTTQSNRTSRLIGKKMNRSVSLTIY
T1 sequence (Q96SW2 whole entry): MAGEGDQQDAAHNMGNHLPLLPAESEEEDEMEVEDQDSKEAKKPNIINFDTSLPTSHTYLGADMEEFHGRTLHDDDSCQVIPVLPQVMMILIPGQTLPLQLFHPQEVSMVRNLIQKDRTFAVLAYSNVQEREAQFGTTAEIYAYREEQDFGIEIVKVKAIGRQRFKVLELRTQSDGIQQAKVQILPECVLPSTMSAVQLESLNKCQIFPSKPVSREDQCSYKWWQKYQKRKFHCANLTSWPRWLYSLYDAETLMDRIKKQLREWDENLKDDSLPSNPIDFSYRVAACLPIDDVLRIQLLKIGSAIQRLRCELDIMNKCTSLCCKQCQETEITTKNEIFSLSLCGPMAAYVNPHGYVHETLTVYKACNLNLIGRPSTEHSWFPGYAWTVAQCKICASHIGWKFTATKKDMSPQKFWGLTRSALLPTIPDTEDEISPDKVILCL
T1 sequence (Q16531 whole entry partner): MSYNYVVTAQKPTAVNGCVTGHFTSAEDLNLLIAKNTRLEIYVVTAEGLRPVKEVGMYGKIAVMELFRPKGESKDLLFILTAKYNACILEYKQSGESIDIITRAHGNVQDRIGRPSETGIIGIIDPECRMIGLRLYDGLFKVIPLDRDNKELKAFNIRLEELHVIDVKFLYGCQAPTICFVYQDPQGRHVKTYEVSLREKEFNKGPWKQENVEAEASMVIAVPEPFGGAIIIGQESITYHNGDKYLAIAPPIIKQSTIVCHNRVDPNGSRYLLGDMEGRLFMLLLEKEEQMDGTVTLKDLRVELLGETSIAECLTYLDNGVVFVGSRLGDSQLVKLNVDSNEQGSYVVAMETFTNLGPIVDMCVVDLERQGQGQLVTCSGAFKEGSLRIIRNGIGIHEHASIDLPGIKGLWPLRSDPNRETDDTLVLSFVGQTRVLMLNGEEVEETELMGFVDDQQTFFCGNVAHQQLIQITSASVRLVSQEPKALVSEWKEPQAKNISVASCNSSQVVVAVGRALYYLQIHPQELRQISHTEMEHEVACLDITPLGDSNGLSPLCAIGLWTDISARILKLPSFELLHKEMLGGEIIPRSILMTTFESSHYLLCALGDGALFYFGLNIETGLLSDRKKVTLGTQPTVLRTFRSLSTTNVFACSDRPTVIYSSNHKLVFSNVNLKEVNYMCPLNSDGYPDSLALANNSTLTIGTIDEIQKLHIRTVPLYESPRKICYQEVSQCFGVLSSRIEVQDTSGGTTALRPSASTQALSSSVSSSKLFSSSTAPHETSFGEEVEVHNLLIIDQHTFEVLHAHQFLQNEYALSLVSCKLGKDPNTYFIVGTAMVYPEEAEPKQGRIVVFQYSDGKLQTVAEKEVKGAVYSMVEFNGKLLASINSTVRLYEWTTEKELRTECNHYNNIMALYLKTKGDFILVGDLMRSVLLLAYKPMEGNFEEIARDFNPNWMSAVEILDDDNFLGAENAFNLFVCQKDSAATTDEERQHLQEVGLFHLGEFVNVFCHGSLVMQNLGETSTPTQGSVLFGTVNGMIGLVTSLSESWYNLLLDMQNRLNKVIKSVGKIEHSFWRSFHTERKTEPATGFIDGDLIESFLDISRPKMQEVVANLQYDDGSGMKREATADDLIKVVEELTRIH
Method in brief: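 LentiX-HEK293T cells expressing C-terminally ePL-tagged full-length WEE1 plus non-degradable GSPT1-GN (G575N, N-terminal 158 aa truncated). Treated 4 h at 37 °C with a 10-point, 3-fold series from 1 or 10 µM, then read by InCELL Hunter luminescence. EC50 from four-parameter logistic fit, Ymax set by DMSO control.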

MKN45 cells = assay: MKN45 cell proliferation assay (Cell-Titer-Glo, 120 hr); settings: for EC50: Homo sapiens, MKN-45, 120 h, read-out: MKN45 Cell Prolif. 120 hr EC50; for MKN45 Cell Prolif. 120 hr YMin (%): minimal percent of DMSO control observed
Method in brief: (§1)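 MKN45 (400/well) and MDA-MB-231 (800/well) cells in RPMI with 10% FBS were exposed to 10-point half-log doses from 1 or 10 uM (0.1% DMSO) for 120 h at 37 °C. Viability was read by CellTiter-Glo luminescence. EC50 came from blank-subtracted, %DMSO four-parameter fits, with Ymin-obs as the lowest %DMSO observed.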

MDA-MB-231 cells = assay: MDA-MB-231 cell proliferation assay (Cell-Titer-Glo, 120 hr); settings: for EC50: Homo sapiens, MDA-MB-231, 120 h, read-out: MDA-MB 231 Cell Prolif. 120 hr EC50; for MDA-MB 231 Cell Prolif. 120 hr YMin (%): minimal percent of DMSO control observed
Method in brief: as §1

Row | SMILES | DC50 (WEE1) [nM] | 293T-LentiX WEE1-ePL Degradation 4 hr YMin (%) (WEE1) | EC50 (MKN45 cells) [nM] | EC50 (MDA-MB-231 cells) [nM] | MKN45 Cell Prolif. 120 hr YMin (%) (MKN45 cells) | MDA-MB 231 Cell Prolif. 120 hr YMin (%) (MDA-MB-231 cells)
1 | COC[C@@H]1CN(Cc2cc(F)c3nc(C4(O)CCOCC4)ncc3c2)C[C@H]1Oc1ccc2c(c1)CN([C@H]1CCC(=O)NC1=O)C2=O [Example 62, (3S)-3-(5-{[(3S,4S)-1-{[8-fluoro-2-(4-hydroxyoxan-4-yl)quinazolin-6-yl]methyl}-4-(methoxymethyl)pyrrolidin-3-yl]oxy}-1-oxo-2,3-dihydro-1H-isoindol-2-yl)piperidine-2,6-dione] | 4 | 31.6 | 7 | 100 | 11.9 | 33.0
2 | COC[C@@H]1CN(Cc2cc(F)c3nc(N4CCC(O)CC4)ccc3c2)C[C@H]1Oc1ccc2c(c1)CN([C@H]1CCC(=O)NC1=O)C2=O [Example 64, (S)-3-(5-(((3S,4S)-1-((8-fluoro-2-(4-hydroxypiperidin-1-yl)quinolin-6-yl)methyl)-4-(methoxymethyl)pyrrolidin-3-yl)oxy)-1-oxoisoindolin-2-yl)piperidine-2,6-dione] | 1 | 28.5 | 2 | 23 | 8.8 | 17.1
3 | COC[C@@H]1CN(Cc2cc(F)c3nc(N4CCC45CCOCC5)ncc3c2)C[C@H]1Oc1ccc2c(c1)CN([C@H]1CCC(=O)NC1=O)C2=O [Example 73, (3S)-3-(5-{[(3S,4S)-1-[(8-fluoro-2-{7-oxa-1-azaspiro[3.5]nonan-1-yl}quinazolin-6-yl)methyl]-4-(methoxymethyl)pyrrolidin-3-yl]oxy}-1-oxo-2,3-dihydro-1H-isoindol-2-yl)piperidine-2,6-dione] | 1 | 28.9 | 3 | 41 | 9.4 | 34.0
4 | COC[C@@H]1CN(Cc2cc(F)c3nc(N4CCC45COC5)ncc3c2)C[C@H]1Oc1ccc2c(c1)CN([C@H]1CCC(=O)NC1=O)C2=O [Example 74, (3S)-3-(5-{[(3S,4S)-1-[(8-fluoro-2-{6-oxa-1-azaspiro[3.3]heptan-1-yl}quinazolin-6-yl)methyl]-4-(methoxymethyl)pyrrolidin-3-yl]oxy}-1-oxo-2,3-dihydro-1H-isoindol-2-yl)piperidine-2,6-dione] | 2 | 31.4 | 3 | 15 | 10.6 | 55.8
5 | COC[C@@H]1CN(Cc2cc(F)c3nc(N4CCOC5(COC5)C4)ncc3c2)C[C@H]1Oc1ccc2c(c1)CN([C@H]1CCC(=O)NC1=O)C2=O [Example 80, (3S)-3-(5-{[(3S,4S)-1-[(2-{2,5-dioxa-8-azaspiro[3.5]nonan-8-yl}-8-fluoroquinazolin-6-yl)methyl]-4-(methoxymethyl)pyrrolidin-3-yl]oxy}-1-oxo-2,3-dihydro-1H-isoindol-2-yl)piperidine-2,6-dione] | 2 | 29.7 | 2 | 42 | 10.3 | 23.5
6 | COC[C@@H]1CN(Cc2ccc3nc(C4CCN(C(C)=O)C(C)(C)C4)ncc3c2)C[C@H]1Oc1ccc2c(c1)CN([C@H]1CCC(=O)NC1=O)C2=O (stereo partly drawn) [Example 82, (3S)-3-(5-{[(3S,4S)-1-{[2-(1-acetyl-2,2-dimethylpiperidin-4-yl)quinazolin-6-yl]methyl}-4-(methoxymethyl)pyrrolidin-3-yl]oxy}-1-oxo-2,3-dihydro-1H-isoindol-2-yl)piperidine-2,6-dione] | 2 | 27.5 | 2 | 26 | 9.0 | 17.9
7 | COC[C@H]1CN(Cc2cc(F)c3nc(C4CCOCC4)ccc3c2)C[C@H]1Oc1ccc2c(c1)CN([C@H]1CCC(=O)NC1=O)C2=O [Example 83, (3S)-3-(5-{[(3S,4R)-1-{[8-fluoro-2-(oxan-4-yl)quinolin-6-yl]methyl}-4-(methoxymethyl)pyrrolidin-3-yl]oxy}-1-oxo-2,3-dihydro-1H-isoindol-2-yl)piperidine-2,6-dione] | – | 81.6 | 109 | 1120 | 94.8 | 87.9

The next lines start with results.

Row | DC50 (WEE1) [nM] | 293T-LentiX WEE1-ePL Degradation 4 hr YMin (%) (WEE1) | EC50 (MKN45 cells) [nM] | EC50 (MDA-MB-231 cells) [nM] | SMILES | MKN45 Cell Prolif. 120 hr YMin (%) (MKN45 cells) | MDA-MB 231 Cell Prolif. 120 hr YMin (%) (MDA-MB-231 cells)
8 | 3 | 29.2 | 2 | 42 | COC[C@@H]1CN(Cc2cc(F)c3nc(N4CCC(O)CC4)ncc3c2)C[C@H]1Oc1ccc2c(c1)CN([C@H]1CCC(=O)NC1=O)C2=O [Example 63, (3S)-3-(5-{[(3S,4S)-1-{[8-fluoro-2-(4-hydroxypiperidin-1-yl)quinazolin-6-yl]methyl}-4-(methoxymethyl)pyrrolidin-3-yl]oxy}-1-oxo-2,3-dihydro-1H-isoindol-2-yl)piperidine-2,6-dione] | 9.2 | 22.6
9 | – | 25.3 | 1 | 5 | COC[C@@H]1CN(Cc2ncc3cc(N4CCOCC4)ccc3c2F)C[C@H]1Oc1ccc2c(c1)CN([C@H]1CCC(=O)NC1=O)C2=O [Example 71, (3S)-3-(5-{[(3S,4S)-1-{[4-fluoro-7-(morpholin-4-yl)isoquinolin-3-yl]methyl}-4-(methoxymethyl)pyrrolidin-3-yl]oxy}-1-oxo-2,3-dihydro-1H-isoindol-2-yl)piperidine-2,6-dione] | 8.7 | 26.6
10 | 1 | 27.3 | 1 | 14 | COC[C@@H]1CN(Cc2cc(F)c3nc(N4CCC45CCOCC5)ccc3c2)C[C@H]1Oc1ccc2c(c1)CN([C@H]1CCC(=O)NC1=O)C2=O [Example 72, (3S)-3-(5-{[(3S,4S)-1-[(8-fluoro-2-{7-oxa-1-azaspiro [3.5]nonan-1-yl}quinolin-6-yl)methyl]-4-(methoxymethyl)pyrrolidin-3-yl]oxy}-1-oxo-2,3-dihydro-1H-isoindol-2-yl)piperidine-2,6-dione] | 9.3 | 20.7
11 | – | 31.2 | 1 | 11 | COC[C@@H]1CN(Cc2cc(F)c3nc(N4CCC45COC5)ccc3c2)C[C@H]1Oc1ccc2c(c1)CN([C@H]1CCC(=O)NC1=O)C2=O [Example 75, (3S)-3-(5-{[(3S,4S)-1-[(8-fluoro-2-{6-oxa-1-azaspiro [3.3]heptan-1-yl}quinolin-6-yl)methyl]-4-(methoxymethyl)pyrrolidin-3-yl]oxy}-1-oxo-2,3-dihydro-1H-isoindol-2-yl)piperidine-2,6-dione] | 10.1 | 56.6
12 | 1 | 28.7 | 1 | 31 | COC[C@@H]1CN(Cc2cc(F)c3nc(N4CCOC5(CC5)C4)ncc3c2)C[C@H]1Oc1ccc2c(c1)CN([C@H]1CCC(=O)NC1=O)C2=O [Example 79, (3S)-3-(5-{[(3S,4S)-1-[(8-fluoro-2-{4-oxa-7-azaspiro[2.5]octan-7-yl}quinazolin-6-yl)methyl]-4-(methoxymethyl)pyrrolidin-3-yl]oxy}-1-oxo-2,3-dihydro-1H-isoindol-2-yl)piperidine-2,6-dione] | 9.9 | 17.9
13 | – | 30.8 | 1 | 83 | COC[C@@H]1CN(Cc2ccc3nc(C4CCOC(C)(C)C4)ccc3c2)C[C@H]1Oc1ccc2c(c1)CN([C@H]1CCC(=O)NC1=O)C2=O (stereo partly drawn) [Example 84, (3S)-3-(5-{[(3S,4S)-1-{[2-(2,2-dimethyloxan-4-yl)quinolin-6-yl]methyl}-4-(methoxymethyl)pyrrolidin-3-yl]oxy}-1-oxo-2,3-dihydro-1H-isoindol-2-yl)piperidine-2,6-dione] | 10.5 | 21.0
